pIC50: −log10 of the molar value.
Biological target: PIK3CD (Human) (UniProt O00329)
Assay: Assessment of PIK3CD Kinase Activity (Scintillation Proximity Assay)

PIK3CD (Human), sequence (O00329 whole entry, looked up): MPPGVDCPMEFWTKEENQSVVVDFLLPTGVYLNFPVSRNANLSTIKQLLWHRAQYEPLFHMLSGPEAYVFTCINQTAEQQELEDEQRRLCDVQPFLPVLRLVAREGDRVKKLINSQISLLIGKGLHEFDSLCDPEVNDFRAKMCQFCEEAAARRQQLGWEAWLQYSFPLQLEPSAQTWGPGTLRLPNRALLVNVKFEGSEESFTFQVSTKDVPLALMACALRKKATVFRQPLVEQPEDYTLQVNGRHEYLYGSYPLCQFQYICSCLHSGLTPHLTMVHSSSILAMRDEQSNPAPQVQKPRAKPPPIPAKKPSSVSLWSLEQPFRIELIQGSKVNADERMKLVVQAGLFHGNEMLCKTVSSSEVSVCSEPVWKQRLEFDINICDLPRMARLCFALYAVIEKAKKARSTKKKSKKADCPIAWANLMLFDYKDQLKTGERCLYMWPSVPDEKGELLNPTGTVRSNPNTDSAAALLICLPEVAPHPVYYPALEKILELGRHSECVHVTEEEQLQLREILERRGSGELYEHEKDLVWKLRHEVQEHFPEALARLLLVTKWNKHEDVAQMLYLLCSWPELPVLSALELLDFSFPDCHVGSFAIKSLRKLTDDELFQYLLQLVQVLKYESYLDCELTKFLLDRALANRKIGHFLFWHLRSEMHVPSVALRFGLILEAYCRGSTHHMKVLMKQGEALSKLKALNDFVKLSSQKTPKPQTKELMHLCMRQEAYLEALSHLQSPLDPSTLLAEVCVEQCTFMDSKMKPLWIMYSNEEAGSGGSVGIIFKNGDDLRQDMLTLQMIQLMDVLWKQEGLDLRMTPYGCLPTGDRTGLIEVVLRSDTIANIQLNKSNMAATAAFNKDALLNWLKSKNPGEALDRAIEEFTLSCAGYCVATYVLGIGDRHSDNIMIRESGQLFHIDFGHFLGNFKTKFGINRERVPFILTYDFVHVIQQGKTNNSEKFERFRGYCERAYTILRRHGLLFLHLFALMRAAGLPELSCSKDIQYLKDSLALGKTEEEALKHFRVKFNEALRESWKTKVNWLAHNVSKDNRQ

Compound | pIC50
COc1c(C(C)n2ccc(=O)c3c(N)ncnc32)cc(Cl)c(C)c1-c1cncc(F)c1 (stereo not given) | ≥ 8.00
CCOc1c(C(C)n2nc(C)c3c(N)ncnc32)cc(Cl)c(C#N)c1C1CN(C(C)C)C1 (stereo not given) | ≥ 8.00
CCOc1c(C(C)n2nc(C)c3c(N)ncnc32)cc(C#N)c(C)c1-c1cnn(C)c1 (stereo not given) | ≥ 8.00
COc1c(C(C)n2nc(C)c3c(N)ncnc32)cc(Cl)c(C)c1C1CN(C)C1 (stereo not given) | ≥ 8.00
COc1c(C(C)n2nc(C)c3c(N)ncnc32)cc(Cl)c(C)c1C1CCN(CC(C)(C)O)CC1 (stereo not given) | ≥ 8.00
CCOc1c(C(C)n2nc(C)c3c(N)ncnc32)cc(Cl)c(C#N)c1N1CC(C#N)C1 (stereo not given) | ≥ 8.00
COc1c(C(C)n2nc(C)c3c(N)ncnc32)cc(Cl)c(C)c1C1CNC(=O)CO1 (stereo not given) | ≥ 8.00
CCOc1c(C(C)n2nc(CC)c3c(N)ncnc32)cc(Cl)c(C)c1-c1ccc(C(=O)N(C)C)nc1 (stereo not given) | 6.70 to 7.30
CCOc1c(C(C)n2nc(C)c3c(N)ncnc32)cc(Cl)c(C#N)c1-c1cncc(C(=O)NC)c1 (stereo not given) | ≥ 8.00
COc1c(C(C)n2nc(C)c3c(N)ncnc32)cc(Cl)c(F)c1C1CN(C[C@@H](C)O)C1 (stereo not given in full) | ≥ 8.00
CCOc1c(C(C)n2nc(C)c3c(N)ncnc32)cc(Cl)c(F)c1C1CN(CCO)C1 (stereo not given) | ≥ 8.00
COc1c(C(C)n2nc(C)c3c(N)ncnc32)cc(Cl)c(C)c1-c1cncc(C#N)c1 (stereo not given) | ≥ 8.00
CCOc1c(C(C)n2nc(C)c3c(N)ncnc32)cc(Cl)c(C#N)c1C1CN(C(=O)N(C)C)C1 (stereo not given) | ≥ 8.00
CCOc1c(C(C)n2nc(C)c3c(N)ncnc32)cc(Cl)c(C#N)c1C1CN(CC(C)(C)O)C1 (stereo not given) | ≥ 8.00
CNC(=O)CCc1c(C)c(Cl)cc(C(C)n2nc(C)c3c(N)ncnc32)c1OC (stereo not given) | ≥ 8.00
COc1c(C(C)n2nc(C(F)F)c3c(N)ncnc32)cc(Cl)c(F)c1C1CN(C(C)C)C1 (stereo not given) | ≥ 8.00
COc1c(C(C)n2nc(C)c3c(N)ncnc32)cc(Cl)c(C)c1C1CN(C(=O)c2cnn(C)c2)C1 (stereo not given) | ≥ 8.00
CCOc1c(C(C)n2cc(C)c3c(N)ncnc32)cc(Cl)c(C#N)c1C1CN(C(C)C)C1 (stereo not given) | ≥ 8.00
COc1c(C(C)n2nc(C)c3c(N)ncnc32)cc(Cl)c(C)c1C1CN(C2CCOCC2)C1 (stereo not given) | ≥ 8.00
COc1c(C(C)n2nc(C)c3c(N)ncnc32)cc(Cl)c(C)c1-c1ccc(C(=O)N(C)C)nc1 (stereo not given) | ≥ 8.00
CCOc1c(C(C)n2nc(C)c3c(N)ncnc32)cc(C)c(C#N)c1C1CN(C(=O)C(C)(C)O)C1 (stereo not given) | ≥ 8.00
COc1c(C(C)n2nc(C)c3c(N)ncnc32)cc(Cl)c(C)c1-c1cncc(C(=O)N(C)CCN)c1 (stereo not given) | ≥ 8.00

Other lines, results leading:

pIC50 | Compound
≥ 8.00 | COc1c(C(C)n2nc(C(F)F)c3c(N)ncnc32)cc(C#N)c(C)c1C1CN(C[C@H](C)O)C1 (stereo not given in full)
≥ 8.00 | CCOc1c(C(C)n2nc(C)c3c(N)ncnc32)cc(Cl)c(C#N)c1C1CN(C(C)(C)C(N)=O)C1 (stereo not given)
≥ 8.00 | CCOc1c(C(C)n2nc(C)c3c(N)ncnc32)cc(Cl)c(C#N)c1C1CN(CC2CCOCC2)C1 (stereo not given)
≥ 8.00 | CCOc1c(C(C)n2nc(C)c3c(N)ncnc32)cc(Cl)c(F)c1C1CN(CC(F)(F)F)C1 (stereo not given)
≥ 8.00 | CCOc1c(C(C)n2cc(C)c3c(N)ncnc32)cc(Cl)c(C#N)c1C1CN(CCO)C1 (stereo not given)
≥ 8.00 | COc1c(C(C)n2nc(C)c3c(N)ncnc32)cc(Cl)c(F)c1C1CN(CC(C)(C)O)C1 (stereo not given)
≥ 8.00 | COc1c(C(C)n2nc(C)c3c(N)ncnc32)cc(Cl)c(C)c1-c1ccc(NCCO)nc1 (stereo not given)
≥ 8.00 | CCOc1c(C(C)n2nc(C)c3c(N)ncnc32)cc(Cl)c(C#N)c1-c1ccc(-c2nnn(C)n2)nc1 (stereo not given)
≥ 8.00 | COc1c(C(C)n2nc(C)c3c(N)ncnc32)cc(Cl)c(Cl)c1C1CN(C(C)C)C1 (stereo not given)
≥ 8.00 | CCOc1c(C(C)n2nc(C)c3c(N)ncnc32)cc(Cl)c(C#N)c1C1CN(S(=O)(=O)C2CC2)C1 (stereo not given)
≥ 8.00 | COc1c(C(C)n2nc(C)c3c(N)ncnc32)cc(Cl)c(C#N)c1C1CN(C(=O)NC(C)(C)C)C1 (stereo not given)
≥ 8.00 | CCOc1c(C(C)n2nc(C)c3c(N)ncnc32)cc(Cl)c(C)c1C1CN(C(=O)[C@H](C)O)C1 (stereo not given in full)
≥ 8.00 | CCOc1c(C(C)n2nc(-c3cncc(C(=O)N(C)C)c3)c3c(N)ncnc32)cc(Cl)c(C)c1-c1ccc(C(=O)N(C)C)nc1 (stereo not given)
